Assay results reported in US20200131227A1, “POLYPEPTIDE WITH TUMOUR BINDING ACTIVITY” (RUPRECHT-KARLS-UNIVERSITÄT HEIDELBERG, priority 2017, published 2020).
“And” between values parts separate entries of the source, which are not always exact repeats. Identical values can stand only once. *1 amine or outer side, *2 acyl side, *3 side chain or, on linkers, in order; H or OH if unused. Bridges are numbered along the chain shown (N, C = ends). Roman numbers before positions name the chains, in order. Where no end group is shown, it is not given here. [ ]: non-standard residue; d: D form. The star is where a group is joined. ξ: configuration not given here. DOTA = O=C(O)CN1CCN(CC(=O)O)CCN(CC(=O)*)CCN(CC(=O)O)CC1; 125I = iodine-125 label on tyrosine, [125I]*; X1 = O=C(CO/N=C/C(=O)[*:2])[*:1]; ξK = NCCCCC(N)C(=O)O; ξS = NC(CO)C(=O)O

Columns and labels:
[1] = tested on: HNO258 cells; test: In vitro binding on HNO258 cells; assay type: cell-based, human; conditions: 60 min; percent applied dose/10^6 cells
Procedure: (§1) For binding studies, 2.5×10^5 to 4×10^5 cells were seeded in 6-well plates and cultivated for 48 hours. Cells were incubated for 60 min with 1 mL serum-free medium containing the ^125I-labeled peptide (see above). For competition experiments, cells were simultaneously exposed to unlabeled (10^-4 M to 10^-10 M) and ^125I-labeled peptides. After three washing steps with PBS (pH 7.4) the cells were lysed with 0.5 mL of 0.3 M NaOH. Experiments concerning the internalization, kinetics and efflux were additionally performed with ^177Lu-DOTA-SFITGv6. To evaluate kinetics and efflux HNO97 cells were incubated for different time intervals (10 min to 480 min) and 60 min, respectively, with ^177Lu-DOTA-SFITGv6 and lysed as described. To continue with the efflux experiment radioactive medium was replaced by non-radioactive medium and cells were incubated again for 60 to 240 min before measuring radioactivity of the cell lysates and the medium. For internalization experiments the cells were exposed to ^177Lu-DOTA-SFITGv6 for different time intervals (10 to 240 min) at 37° C. and 4° C. After three washing steps with PBS the cells were incubated with 1 mL of glycine-HCl 50 mmol/L in PBS (pH 2.8) for 10 min at RT to remove the surface bound activity. […] Radioactivity was determined in a gamma counter and calculated as percentage of the applied dose per 1×10^6 cells. […]

[2] = tested on: carcinoma cell lines; test: In vitro binding of radiolabeled peptides to several carcinoma cell lines; assay type: cell-based, human; conditions: for binding of ^125I-labeled peptide with unlabeled peptide as competitor: co-incubation with 10^-6 M unlabeled peptide, 60 min, all cell lines tested
Procedure: (§2) For binding studies, 2.5×10^5 to 4×10^5 cells were seeded in 6-well plates and cultivated for 48 hours. Cells were incubated for 60 min with 1 mL serum-free medium containing the ^125I-labeled peptide (see above). For competition experiments, cells were simultaneously exposed to unlabeled (10^-4 M to 10^-10 M) and ^125I-labeled peptides. After three washing steps with PBS (pH 7.4) the cells were lysed with 0.5 mL of 0.3 M NaOH. Experiments concerning the internalization, kinetics and efflux were additionally performed with ^177Lu-DOTA-SFITGv6. To evaluate kinetics and efflux HNO97 cells were incubated for different time intervals (10 min to 480 min) and 60 min, respectively, with ^177Lu-DOTA-SFITGv6 and lysed as described. To continue with the efflux experiment radioactive medium was replaced by non-radioactive medium and cells were incubated again for 60 to 240 min before measuring radioactivity of the cell lysates and the medium. For internalization experiments the cells were exposed to ^177Lu-DOTA-SFITGv6 for different time intervals (10 to 240 min) at 37° C. and 4° C. After three washing steps with PBS the cells were incubated with 1 mL of glycine-HCl 50 mmol/L in PBS (pH 2.8) for 10 min at RT to remove the surface bound activity. Then, cells were washed with 3 mL of ice-cold PBS and lysed as described. Radioactivity was determined in a gamma counter and calculated as percentage of the applied dose per 1×10^6 cells. Experiments were performed three times, and three repetitions per independent experiment were acquired.
(§3) For the assessment of the peptide binding capacity in vitro, 2.5-4×10^5 cells were seeded into 6-well plates and cultivated for 48 h. ^125I-labeled peptide resuspended in 1 mL serum-free medium was added and incubated for either 10 min or 60 min with or without different concentrations of unlabeled peptide (10^−4-10^−11 M). Afterwards, cell monolayers were washed three times with 1 mL phosphate-buffered saline (pH 7.4) to remove unbound peptide and the cells were harvested with 1.4 mL lysis buffer (0.3 M NaOH). To evaluate kinetic properties the cells were exposed to ^177Lu-DOTA-labeled peptides for 10, 30, 60, 120, and 240 min, respectively, and lysed as described. For the efflux experiments the cells were incubated with ^177Lu-DOTA-labeled peptides for 60 min. Thereafter, radioactive medium was replaced by non-radioactive medium and cell monolayers were incubated for additional 60, 120, and 240 min and afterwards lysed as described earlier. The internalization was assessed after exposure of the cells to ^177Lu-DOTA-labeled peptides for 10, 30, 60, 120, and 240 min at 37° C. Unspecifically bound peptide was removed from the surface by incubation with 1 M glycine-HCl solution (pH 2.2) for 10 min. The monolayer cell was rinsed with PBS and cells were lysed as described before. Radioactivity was determined in a y-counter and calculated as percentage of the applied dose per 1×10^6 cells. Experiments were performed three times, and three repetitions per independent experiment were acquired.

[3] = tested on: MCF-7 cells; test: In vitro binding on MCF-7 cells; assay type: cell-based, human; conditions: 60 min; percent applied dose/10^6 cells
Procedure: as §1

[4] = tested on: HNO97 cells; test: In vitro binding, kinetics, internalization and efflux on HNO97 cells; assay type: cell-based, human
Procedure: as §2, §3

[5] = tested on: UM-UC-5 cells; test: In vitro binding on UM-UC-5 cells; assay type: cell-based, human; conditions: 60 min; percent applied dose/10^6 cells
Procedure: as §1

[6] = tested on: Capan-2 cells
[7] = tested on: HNO210 cells; test: In vitro binding on HNO210 cells; assay type: cell-based, human; conditions: 60 min; percent applied dose/10^6 cells
Procedure: For binding studies, 2.5×10^5 to 4×10^5 cells were seeded in 6-well plates and cultivated for 48 hours. Cells were incubated for 60 min with 1 mL serum-free medium containing the ^125I-labeled peptide (see above). For competition experiments, cells were simultaneously exposed to unlabeled (10^-4 M to 10^-10 M) and ^125I-labeled peptides. After three washing steps with PBS (pH 7.4) the cells were lysed with 0.5 mL of 0.3 M NaOH. Experiments concerning the internalization, kinetics and efflux were additionally performed with ^177Lu-DOTA-SFITGv6. […] To continue with the efflux experiment radioactive medium was replaced by non-radioactive medium and cells were incubated again for 60 to 240 min before measuring radioactivity of the cell lysates and the medium. […] Radioactivity was determined in a gamma counter and calculated as percentage of the applied dose per 1×10^6 cells. […]
For the assessment of the peptide binding capacity in vitro, 2.5-4×10^5 cells were seeded into 6-well plates and cultivated for 48 h. ^125I-labeled peptide resuspended in 1 mL serum-free medium was added and incubated for either 10 min or 60 min with or without different concentrations of unlabeled peptide (10^−4-10^−11 M). […] The internalization was assessed after exposure of the cells to ^177Lu-DOTA-labeled peptides for 10, 30, 60, 120, and 240 min at 37° C. […]

[8] = tested on: LUDLU-1 cells; test: In vitro binding on LUDLU-1 cells; assay type: cell-based, human; conditions: 60 min; percent applied dose/10^6 cells
Procedure: as §1

[9] = tested on: HT29 cells; test: In vitro binding on HT29 cells; assay type: cell-based, human; conditions: 60 min; percent applied dose/10^6 cells
Procedure: as §1

[10] = tested on: HNO399 cells; test: In vitro binding on HNO399 cells; assay type: cell-based, human; conditions: 60 min; percent applied dose/10^6 cells
Procedure: as §3, with “To evaluate kinetic properties the cells were exposed to ^177Lu-DOTA-labeled peptides for 10, 30, 60, 120, and 240 min, respectively, and lysed as described.” left out, “The internalization was assessed after exposure of the cells to ^177Lu-DOTA-labeled peptides for 10, 30, 60, 120, and 240 min at 37° C.” left out

[11] = Serum stability assay (radio-HPLC); assay type: in vitro ADME, human
Procedure: Five MBq of the purified ^131I-radiolabeled peptide was incubated in 300 μL human serum at 37° C. After different time intervals (15 min to 24 hours) 20 μL serum was precipitated with 40 μL acetonitrile. The stability of the labeled peptide in the supernatant was monitored by radio-HPLC at selected time points using a chromolith performance RP18ec column (3 mm×100 mm) equipped with a gamma detector (Packard COBRA™ Auto-Gamma, GMI). Separation condition was a gradient of 0% to 60% aqueous acetonitrile supplemented with 0.1% TFA over 10 min with a flow rate of 2 mL/min.

| Substance | binding of ^125I-labeled peptide [1] | binding of ^125I-labeled peptide with unlabeled peptide as competitor [2] | binding of ^125I-labeled peptide [3] | maximal uptake of ^125I-labeled peptide (kinetics) ([4]; after exposure for 120 min) | uptake of ^125I-labeled peptide after decrease (kinetics) ([4]; decrease following the 120 min maximum) | binding of ^125I-labeled peptide [5] | IC50 [6] | binding of ^125I-labeled peptide [7] | competition of binding by non-radioactively labeled counterpart ([2]; 10^−6 M competitor, all tested HNSCC cell lines) | competition of binding by unlabeled analog ([2]; 10^−6 M unlabeled analog) | average specific binding of ^125I-labeled peptide ([2]; HNO97, other HNSCC, lung, bladder and colon carcinoma cell lines) | binding of ^125I-labeled peptide [8] | binding of ^125I-labeled peptide [9] | binding of ^125I-labeled peptide [10] | retention of radioactivity in cells (efflux experiment) ([4]; 240 min after termination of the uptake (1 h exposure), of originally accumulated activity) | maximal uptake of ^125I-labeled peptide (kinetics) ([4]; after exposure for 60 min) | internalization of ^125I-labeled peptide after decrease ([4]; decrease following the 60 min maximum) | maximal internalization of ^125I-labeled peptide ([4]; within 60 min) | proteolytic stability in human serum [11] |
| --- | --- | --- | --- | --- | --- | --- | --- | --- | --- | --- | --- | --- | --- | --- | --- | --- | --- | --- | --- |
| ^125I-SFPF-10: ^125I-labeled peptide SFPF-10 (GRCTFRGDKMQLCY(125I)PD; disulfide 3-13 (inferred)) | 2.6% | below 1 % of the applied dose | 1.6% | 12.6% | 6.7% | 7.5% | – | – | – | – | – | – | – | – | – | – | – | – | – |
| I: GRCTGRGDLGRLCYPD-NH2 / II: GRCTGRGDLGRLCYPD-NH2 / III: GRCTGRGDLGRLCYPD-NH2 / IV: {DOTA}-G[ξS]G[ξS][ξK]G[ξS]G[ξS][ξK]G[ξS]G[ξS][ξK]-NH2 (disulfide I:3-I:13, II:3-II:13, III:3-III:13; linker I:N-IV:15, II:N-IV:10, III:N-IV:5 via X1) [^125I-DOTA-SFLAP3-trimer] | – | – | – | – | – | – | 0.76 nM | – | – | – | – | – | – | – | – | – | – | – | – |
| ^125I-SFITGv6: ^125I-labeled SFITGv6 (GRCTFRGDLMQLCY(125I)PD; disulfide 3-13) | 3.5% | below 1 % of the applied dose | – | – | – | 10.4% | – | 7.1% and 10.5% | almost completely competed | more than 90% | 7% | 4.3% | 2.8% | 9.8% | less than 5% | 37.3% | 12.6% | up to 24.1% | no degradation over a 24 hours |
